Measured values from patent publication EP1184374A1, “Carboxamide derivatives of pyrrolidine, piperidine and hexahydroazepine for the treatment of thrombosis disorders” (ORTHO PHARMACEUTICAL CORPORATION, priority 1996, dated 1997).

How the values were obtained:
[1] = test system: collagen- or ADP-induced ex vivo platelet aggregation; test: Ex vivo dog study (platelet aggregation, hemodynamics, bleeding time, coagulation, cell counts); format: in vivo, dogs
Method: Adult mongrel dogs (8-13 kg) were anesthetized with sodium pentobarbital (35 mg/kg, i.v.) and artificially respired. Arterial blood pressure and heart rate were measured using a Millar catheter-tip pressure transducer inserted in a femoral artery. Another Millar transducer was placed in the left ventricle (LV) via a carotid artery to measure LV end diastolic pressure and indices of myocardial contractility. A lead II electrocardiogram was recorded from limb electrodes. Catheters were placed in a femoral artery and vein to sample blood and infuse drugs, respectively. Responses were continuously monitored using a Modular Instruments data aquisition system.
Arterial blood samples (5-9 ml) were withdrawn into tubes containing 3.8% sodium citrate to prepare platelet rich plasma (PRP) and to determine effects on coagulation parameters: prothrombin time (PT) and activated partial thromboplastin time (APTT). Separate blood samples (1.5 ml) were withdrawn in EDTA to determine hematocrit and cell counts (platelets, RBC's and white cells). Template bleeding times were obtained from the buccal surface using a symplate incision devise and Whatman filter paper.
Aggregation of PRP was performed using a BioData aggregometer. Aggregation of whole blood used a Chronolog impedance aggregometer. PT and APTT were determined on either a BioData or ACL 3000+ coagulation analyser. Cells were counted with a Sysmex K-1000.
Compounds were solubilized in a small volume of dimethylformamide (DMF) and diluted with saline to a final concentration of 10% DMF. Compounds were administered by the intravenous route with a Harvard infusion pump. Doses was administered over a 15 min interval at a constant rate of 0.33 ml/min. Data were obtained after each dose and in 30 min intervals following the end of drug administration. Oral doses were administered as aqueous solutions via syringe.

gel-filtered platelets = test: In vitro inhibition of thrombin-induced gel-filtered platelet aggregation; format: cell-based; details: Homo sapiens; for inhibition at 50 µM: read-out: Platelet Aggregation % Inh. (50µM)
Method: IN VITRO INHIBITION OF THROMBIN-INDUCED GEL-FILTERED PLATELET AGGREGATION ASSAY.
The percentage of platelet aggregation is calculated as an increase in light transmission of compound-treated platelet concentrate vs. control-treated platelet concentrate. Human blood is obtained from drug free, normal donors into tubes containing 0.13M sodium citrate. Platelet rich plasma (PRP) is collected by centrifugation of whole blood at 200 x g for 10 min at 25°C. The PRP (5 mL) is gel filtered through Sepharose 2B (bed volume 50 mL), and the platelet count is adjusted to 2x10^7 platelets per sample. The following constituents are added to a siliconized cuvette: concentrated platelet filtrate and Tyrode's buffer (0.14M NaCl, 0.0027MKCl, 0.012M NaHCO3, 0.76 mM Na2HPO4, 0.0055M glucose, 2 mg/mL BSA and 5.0mM HEPES @ pH 7.4) in an amount equal to 350 µl, 50 µl of 20 mM calcium and 50 µl of the test compound. Aggregation is monitored in a BIODATA aggregometer for the 3 min following the addition of agonist (thrombin 50 µl of 1 unit/mL).

GPIIb/IIIa = GPIIb/IIIa (Homo sapiens, UniProt P05106+P08514); test: In vitro solid phase purified glycoprotein IIb/IIIa binding assay (biotinylated fibrinogen binding); details: for inhibition at 50 µM: read-out: Fibrinogen Binding % Inh. (50 µM)
Method: IN VITRO SOLID PHASE PURIFIED GLYCOPROTEIN IIB/IIIA BINDING ASSAY.
The plate is covered and incubated overnight at 4°C. The GPIIb/IIa solution is discarded and 150 µl of 5% BSA is added and incubated at RT for 1-3 h. The plate is washed extensively with modified Tyrodes buffer. Biotinylated fibrinogen (25 µl/well) at 2 x final concentration is added to the wells that contain the test compounds (25 µl/well). The plate is covered and incubated at RT for 2-4 h. Twenty minutes prior to incubation completion, one drop of Reagent A (Vecta Stain ABC Horse Radish Peroxidase kit, Vector Laboratories, Inc.) and one drop Reagent B are added with mixing to 5 mL modified Tyrodes buffer mix and let stand. The ligand solution is discarded and the plate washed (5 x 200 µl/well) with modified Tyrodes buffer. Vecta Stain HRP-Biotin-Avidin reagent (50 µl/well, as prepared above) is added and incubated at RT for 15 min. The Vecta Stain solution is discarded and the wells washed (5 x 200 µl/well) with modified Tyrodes buffer. Developing buffer (10 mL of 50 mM citrate/phosphate buffer @ pH 5.3, 6 mg o-phenylenediamine, 6 µl 30% H2O2; 50 µl/well) is added and incubated at RT for 3-5 min, and then 2N H2SO4 (50 µl/well) is added. The absorbance is read at 490 nm.

GPIIb/IIIa, sequence (P08514 32-887 limits assumed): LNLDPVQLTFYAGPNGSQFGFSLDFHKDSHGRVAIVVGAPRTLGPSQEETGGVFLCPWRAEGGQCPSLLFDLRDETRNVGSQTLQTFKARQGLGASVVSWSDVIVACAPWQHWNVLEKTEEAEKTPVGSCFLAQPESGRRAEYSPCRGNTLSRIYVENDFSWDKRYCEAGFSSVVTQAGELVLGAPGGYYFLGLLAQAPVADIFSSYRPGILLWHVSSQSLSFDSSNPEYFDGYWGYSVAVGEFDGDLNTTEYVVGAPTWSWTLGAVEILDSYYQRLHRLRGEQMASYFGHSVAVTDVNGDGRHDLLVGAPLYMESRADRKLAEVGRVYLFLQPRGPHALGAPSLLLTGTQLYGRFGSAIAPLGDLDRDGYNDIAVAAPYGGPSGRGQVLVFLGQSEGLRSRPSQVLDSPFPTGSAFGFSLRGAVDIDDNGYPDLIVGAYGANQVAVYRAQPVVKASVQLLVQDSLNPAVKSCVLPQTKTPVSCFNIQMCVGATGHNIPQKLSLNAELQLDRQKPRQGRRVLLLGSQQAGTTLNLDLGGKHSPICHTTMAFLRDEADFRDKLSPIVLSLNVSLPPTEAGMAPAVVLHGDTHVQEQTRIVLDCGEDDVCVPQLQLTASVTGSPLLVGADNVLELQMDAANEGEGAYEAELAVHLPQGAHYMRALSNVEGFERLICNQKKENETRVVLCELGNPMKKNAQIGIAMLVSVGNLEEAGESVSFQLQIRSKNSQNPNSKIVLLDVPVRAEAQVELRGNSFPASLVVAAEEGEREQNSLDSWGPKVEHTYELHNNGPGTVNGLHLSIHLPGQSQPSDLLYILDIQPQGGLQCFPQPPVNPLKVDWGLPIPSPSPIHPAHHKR
GPIIb/IIIa, sequence (P08514 891-1039 partner limits assumed): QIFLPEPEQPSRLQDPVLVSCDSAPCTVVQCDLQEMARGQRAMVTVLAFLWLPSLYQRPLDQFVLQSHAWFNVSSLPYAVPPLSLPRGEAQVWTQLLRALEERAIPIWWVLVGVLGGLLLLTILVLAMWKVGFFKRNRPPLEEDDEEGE
GPIIb/IIIa, sequence (P05106 27-788): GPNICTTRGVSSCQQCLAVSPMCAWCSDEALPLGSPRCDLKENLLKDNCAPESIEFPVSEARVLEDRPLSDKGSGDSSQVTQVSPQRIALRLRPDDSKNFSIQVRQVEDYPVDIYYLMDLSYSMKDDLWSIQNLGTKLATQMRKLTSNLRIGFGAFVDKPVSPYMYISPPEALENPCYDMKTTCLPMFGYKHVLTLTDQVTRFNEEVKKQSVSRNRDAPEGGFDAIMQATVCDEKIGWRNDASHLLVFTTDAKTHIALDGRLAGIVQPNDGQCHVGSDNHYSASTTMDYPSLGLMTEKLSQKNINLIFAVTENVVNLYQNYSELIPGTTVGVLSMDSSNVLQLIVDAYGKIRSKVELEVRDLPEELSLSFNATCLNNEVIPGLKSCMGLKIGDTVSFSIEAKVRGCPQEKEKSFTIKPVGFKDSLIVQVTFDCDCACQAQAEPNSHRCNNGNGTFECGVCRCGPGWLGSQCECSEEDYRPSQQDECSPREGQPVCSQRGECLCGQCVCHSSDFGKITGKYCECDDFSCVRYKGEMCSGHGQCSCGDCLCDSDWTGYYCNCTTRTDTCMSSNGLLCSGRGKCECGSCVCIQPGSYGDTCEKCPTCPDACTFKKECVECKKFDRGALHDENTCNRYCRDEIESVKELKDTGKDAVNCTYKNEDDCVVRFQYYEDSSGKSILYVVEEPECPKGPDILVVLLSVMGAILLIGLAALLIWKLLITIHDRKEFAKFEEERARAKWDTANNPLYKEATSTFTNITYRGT

Compound	Duration of >50% inhibition of collagen-induced ex vivo platelet aggregation ([1]; oral dosing 3 mpk)	IC50 (gel-filtered platelets)	inhibition at 50 µM (gel-filtered platelets)	inhibition at 50 µM (GPIIb/IIIa)	IC50 (GPIIb/IIIa)	Duration of >50% inhibition of collagen-induced ex vivo platelet aggregation ([1]; intravenous dosing 0.1 mpk)	Duration of >50% inhibition of collagen-induced ex vivo platelet aggregation ([1]; oral dosing 1 mpk)
COc1cc(NC(=O)N[C@@H](CNC(=O)[C@@H]2CCCN(C(=O)CCC3CCNCC3)C2)C(=O)O)cc(OC)c1 [Compound 26, N-3-(4-Piperidinepropionyl)-R-(-)nipecotyl-[(S)-2-(3,5-dimethoxyanllino)carbonylamino-3-amino]propionic acid]	60 min	0.016 µM	97%	100%			
CN1CCC(CCC(=O)N2CCCC(C(=O)NCCC(=O)O)C2)CC1 (stereo not shown) [Compound 7, N-3-(4-N-Methyl-piperidinepropionyl)-nipecotyl-3-aminopropionic acid]		2.4 µM	75.6%	100%	0.006 µM		
C[Si](C)(C)C#CC(CC(=O)O)NC(=O)C1CCCN(C(=O)CCC2CCNCC2)C1 (stereo not shown) [Compound 9, N-3-(4-Piperidinepropionyl)-nipecotyl-[3-amino-3-(2-trimethylsilylethynyl)]propionic acid]		0.37 µM	90.9%	99%	0.002 µM		
O=C(O)CC(NC(=O)C1CCCCN(C(=O)CCC2CCNCC2)C1)c1cnc2ccccc2c1 (stereo not shown) [Compound 17, N-3-(4-Piperidinepropionyl)-hexahydroazepine-3-carboxy-[3-amino-3-(3-quinolinyl)]propionic acid]		0.45 µM	89.6%	96%	0.005 µM		
O=C(O)C[C@H](NC(=O)[C@@H]1CCCN(C(=O)CCC2CCNCC2)C1)c1cncc(Br)c1 [Compound 32, N-3-(4-Piperidinepropionyl)-R-(-)nipecotyl-[(S)-3-amino-3-(5-bromo-3-pyridyl)] propionic acid]		0.02 µM		100%			
O=C(NC[C@@H]1NC(=O)N(Cc2ccccc2)C1=O)[C@@H]1CCCN(C(=O)CCC2CCNCC2)C1 [Compound 29, N-3-(4-Piperidinepropionyl)-R-(-)nipecotyl-aminomethyl-5-(S)-(3-N-benzyl)imidazoline-2.4-dione]		42 µM	100%	100%			
O=C(N[C@@H](CNC(=O)[C@@H]1CCCN(C(=O)CCC2CCNCC2)C1)C(=O)O)OCc1ccccc1 [Compound 23, N-3-(4-Piperidinepropionyl)-R-(-)nipecotyl-[(S)-2-benzyloxycarbonylamino-3-amino]propionic acid]	150 min	0.027 µM	97%	100%		60 min	180 min
O=C(O)C[C@H](NC(=O)C1CCCN(CCCC2CCNCC2)C1)c1ccc2c(c1)OCO2 (stereo partly drawn) [Compound 20, N-3-(4-Piperidinepropyl)-nipecotyl-[(S)-3-amino-3-(3,4-methylenedioxyphenyl)]propionic acid]		37 µM	89.7%	99%			
NCCCCCC(=O)N1CCCC(C(=O)NC(CC(=O)O)c2cccnc2)C1 (stereo not shown) [Compound 10, N-(6-Aminocaproyl)-nipecotyl-3-amino-3-(3-pyridyl)propionic acid]		1.6 µM	85%	91.3%			
COC(=O)[C@@H](CC(=O)O)NC(=O)C1CCCN(C(=O)OCC2CCNCC2)C1 (stereo partly drawn) [Compound 3, N-(4-Piperidinemethyloxycarbonyl)-nipecotyl-D-aspartic acid α-methyl ester]		> 100 µM	26.2%	81%			
O=C(O)CC(NC(=O)C1CCCN(C(=O)CCC2CCNCC2)C1)c1ccccc1 (stereo not shown) [Compound 1, N-3-(4-Piperidinepropionyl)-nipecotyl-(3-amino-3-phenyl) propionic acid]		3.6 µM	83%	95%	0.003 µM		
N=CN1CCC(CCC(=O)N2CCCC(C(=O)NC(CC(=O)O)c3cccnc3)C2)CC1 [Compound 33, N-3-(4-Formamidinopiperidinepropionyl)-R-(-)nipecotyl-[(S)-3-amino-3-(3-pyridyl)] propionic acid]		0.3 µM	100%	100%			
O=C(O)CC(NC(=O)C1CCN(C(=O)CCC2CCNCC2)CC1)c1ccc(C(=O)O)cc1 (stereo not shown) [Compound 6]		73 µM	71.2%	90.7%	0.197 µM		
Cc1ccc(C(CC(=O)O)NC(=O)C2CCN(C(=O)CCC3CCNCC3)C2)cc1 (stereo not shown) [Compound 4, N-3-(4-Piperidinepropionyl)-pyrrolidine-3-carboxy-[3-amino-3-(4-tolyl)]propionic acid]		26 µM	81%	89.9%	0.121 µM		
CC(CC(=O)O)NC(=O)C1CCN(C(=O)CCC2CCNCC2)CC1 (stereo not shown) [Compound 5, N-3-(4-Piperidinepropionyl)-isonipecotyl-(3-amino-3-methyl) propionic acid]		10 µM	100%	89%	0.012 µM		
O=C(O)C(O)CNC(=O)[C@@H]1CCCN(C(=O)CCC2CCNCC2)C1 (single isomer, unassigned) [Compound 11, N-3-(4-Piperidinepropionyl)-R-(-)-nipecotyl-(3-amino-2-hydroxy) propionic acid]		1.55 µM	99.2%	79.6%			
CN1CCN(CCC(=O)N2CCCC(C(=O)NC(CC(=O)O)c3ccc4c(c3)OCO4)C2)CC1 (stereo not shown) [Compound 14, N-3-(4-N-Methyl-piperazinepropionyl)-nipecotyl-[3-amino-3-(3,4-methylenedioxyphenyl)]propionic acid]		0.91 µM	91%	99%	0.004 µM		
O=C(NCCc1nnn[nH]1)C1CCCN(C(=O)CCC2CCNCC2)C1 (stereo not shown) [Compound 13, N-3-(4-Piperidinepropionyl)-nipecotyl-5H-(2-aminoethyl)tetrazole]		25.5 µM	67%	95%	1.39 µM		
O=C(O)C1CN(C(=O)C2CCCN(C(=O)CCC3CCNCC3)C2)CCC1=O (stereo not shown) [Compound 8, N-3-(4-Piperidinepropionyl)-nipecotyl-4-oxonipecotic acid]				93%	0.332 µM		
CC(CNC(=O)C1CCCN(C(=O)NCC2CCNCC2)C1)C(=O)O (stereo not shown) [Compound 2, N-(4-Piperidinemethylaminocarbonyl)-nipecotyl-(3-amino-2-methyl) propionic acid]		54 µM	95.7%	93%	0.027 µM		
O=C(O)CCNC(=O)C1CCCN(S(=O)(=O)CCC2CCNCC2)C1 (stereo not shown) [Compound 12, N-3-(4-Piperidineethanesulfonyl)-nipecotyl-3-aminopropionic acid]		15.5 µM	88%	97%	0.025 µM		
